System: MDA-MB-231 cells
Experiment: Sphere formation assay
Format: cell-based, human
Description: The sphere formation potential of the cells was evaluated under nonadherent culture conditions. The cells were cultured in ultralow-attachment 6-well plates (Corning Life Sciences, MA, USA) at a density of 2 × 10^3 cells per well, since the low overall viability of […] prevents the use of single-cell culture methods. The cells were grown in DMEM/F12 (Invitrogen, CA, USA) supplemented with B27 serum-free supplement (1:50; Invitrogen, CA, USA), human recombinant epidermal growth factor (EGF), and 50 ng/ml human recombinant basic fibroblast growth factor (PeproTech, NJ, USA) with 100 μM peptides at 37 °C with 5% CO2. Fresh medium was added every 3 to 4 d, and sphere formation was monitored. The experiment was terminated on day 10, and the number of spheres (>50 μm) was quantified.

Compound: C[C@@H](O)[C@H](NC(=O)[C@H](CO)NC(=O)[C@H](CS)NC(=O)[C@H](CCCCN)NC(=O)CN)C(=O)N[C@@H](CCCNC(=N)N)C(=O)NCC(=O)N[C@@H](CCCNC(=N)N)C(=O)N[C@@H](CCCCN)C(=O)N[C@@H](CS)C(=O)N[C@@H](CS)C(=O)N[C@@H](CCCNC(=N)N)C(=O)N[C@@H](CCCNC(=N)N)C(=O)N[C@@H](CCCCN)C(=O)N[C@@H](CCCCN)C(N)=O [RBP]
- spherical colonies observed in RBP-treated groups (MDA-MB-231, serum-free medium with growth factors, nonadherent conditions, after 3 d (Fig. 2C legend)): no colonies >30 μm in diameter were observed
- sphere proliferation vs control (MDA-MB-231, ultralow-attachment plates, 100 μM peptide added on the first day, 10 d): significantly suppressed

Source: PMC11997307, “Rat Sarcoma (RAS)-Protein-Targeting Synthetic Cell-Penetrating Peptide as an Anticancer Biomaterial” (Biomaterials Research, 2025)
